From patent publication US9192662B2, “Methods using immunomodulatory compounds for modulating level of CD59” (Celgene Corporation, priority 2008, dated 2015)

What was measured:
[1] = system: CD59 mRNA; test: CD59 mRNA levels in alpha-CD3/CD28 stimulated T cells (Affymetrix gene array); format: cell-based, Human; conditions: CD4+ T cells, anti-CD3/anti-CD28 stimulation; 3, 6, 12 and 24 hours; lenalidomide 10 μM, CC-4047 1 μM; FIG. 3
Experimental: Human PBMCs were isolated from buffy coat from four healthy volunteers using ficoll gradient centrifugation CD4+ T cells were isolated from each batch of PBMCs using anti-CD4 microbeads (Miltenyi). Cells were treated with 0.1% DMSO or 4-amino-2-(2,6-dioxopiperidin-3-yl)isoindoline-1,3-dione (1 μM) 1 or lenalidomide (10 μM) in the presence or absence of anti-CD3/anti-CD28 stimulation over a time course which included 3, 6, 12 and 24 hours of treatment. Cells were harvested at indicated times and RNA isolated as described above. Methods for Affymetrix gene array analysis were as described above.

[2] = system: CD59 mRNA; test: CD59 mRNA levels in several in vitro cellular models in Affymetrix gene array experiments; format: cell-based; conditions: primary T cells, primary monocytes, NK cells, cultured PBMCs from normal and CLL patients, Namalwa Burkitt's lymphoma cell line
Source text: In certain embodiments, the immunomodulatory compounds provided herein, such as 3-(4-amino-1-oxo-1,3-dihydro-isoindol-2-yl-piperidine-2,6-dione (lenalidomide), 4-amino-2-(2,6-dioxopiperidin-3-yl)isoindoline-1,3-dione or N-{[2-(2,6-dioxo(3-piperidyl)-1,3-dioxoisoindolin-4-yl]methyl}cyclopropyl-carboxamide, induce increase in the mRNA levels of CD59 in several in vitro cellular models in Affymetrix gene array experiments (both primary cells and cell lines). In certain aspects, this increase is found in primary T cells, primary monocytes, NK cells, cultured PBMCs from normal and CLL patients, and the Namalwa Burkitt's lymphoma cell line.
Namalwa cells are cultured in RPM1 supplemented with 10% fetal bovine serum. Cells are treated with vehicle control (0.1% DMSO) or 4-amino-2-(2,6-dioxopiperidin-3-yl)isoindoline-1,3-dione (10 μM) or lenalidomide (10 μM) for 8 hours and 24 hours. Cells are harvested and RNA isolated as described above. Methods for Affymetrix gene array analysis are as described above.
PBMCs are isolated from whole blood from CLL patients (MD Anderson) using ficoll gradient centrifugation. Cells are treated with 4-amino-2-(2,6-dioxopiperidin-3-yl)isoindoline-1,3-dione (1 μM), lenalidomide (10 μM) or N-{[2-(2,6-dioxo(3-piperidyl)-1,3-dioxoisoindolin-4-yl]methyl}cyclopropyl-carboxamide (10 μM) for 24 and 48 hours. Samples from five CLL patients are analyzed individually. Cells are harvested and RNA isolated as described above. Methods for Affymetrix gene array analysis are as described above.

[3] = system: CD59 mRNA; test: CD59 mRNA levels in PBMCs (Affymetrix gene array); format: cell-based, Human; conditions: PBMCs from healthy volunteers; 24, 48 and 72 hours; lenalidomide 10 μM, CC-4047 1 μM; FIG. 1
Experimental: Human PBMCs were isolated from buffy coat from healthy volunteers using ficoll gradient centrifugation. PBMCs were treated with 4-amino-2-(2,6-dioxopiperidin-3-yl)isoindoline-1,3-dione (1 μM) or lenalidomide (10 μM) or vehicle control (0.1% DMSO) for 24 hours, 48 hours, and 72 hours. Cells were harvested and RNA isolated as above. Methods for Affymetrix gene array analysis were as described above.

[4] = system: CD59 mRNA; test: CD59 mRNA levels in unstimulated monocytes (Affymetrix gene array); format: cell-based, Human; conditions: CD14+ monocytes from healthy volunteers, after treatment with 10 nM or more, FIG. 2
Experimental: Human PBMCs were isolated from buffy coat from three healthy volunteers using ficoll gradient centrifugation. CD14+ monocytes were isolated from each batch of PBMCs using anti-CD14 microbeads (Miltenyi). Cells were treated with 0.1% DMSO or 4-amino-2-(2,6-dioxopiperidin-3-yl)isoindoline-1,3-dione (1 μM) 1 or lenalidomide (10 μM) for 30 minutes. Thereafter the cells were either left unstimulated or stimulated with 100 ng/ml LPS and incubated for 6 hours. After the incubation period the cells were lysed in TRI reagent (Sigma) for RNA isolation. The RNAs isolated using the TRI reagent RNA isolation protocol, were column cleaned (Qiagen) and the RNAs kept separate from the donors, were pooled for cDNA synthesis. Briefly, double-stranded cDNA will be synthesized using 2-5 μg of total RNA. Biotin-labeled cRNA will be synthesized using MessageAmp aRNA kit (Ambion), 15 μg of cRNA fragmented and hybridized to each Affymetrix human UI 33A array. The above procedures will be done twice for each RNA sample to obtain replicate biotin-labeled probes. Data analysis was performed using GeneSpring (Agilent).

Nc1cccc2c1C(=O)N(C1CCC(=O)NC1=O)C2=O (stereo not drawn) [CC-4047, 4-amino-2-(2,6-dioxopiperidin-3-yl)isoindoline-1,3-dione]
increase: CD59 mRNA levels in α-cd3/cd28 stimulated T cells [1] | mRNA levels of CD59 in several in vitro cellular models [2] | CD59 mRNA levels in PBMC cells [3] | CD59 mRNA levels in unstimulated monocytes [4]

O=C1CCC(N2C(=O)c3cccc(CNC(=O)C4CC4)c3C2=O)C(=O)N1 (stereo not drawn) [N-{[2-(2,6-dioxo(3-piperidyl)-1,3-dioxoisoindolin-4-yl]methyl}cyclopropyl-carboxamide]
increase: mRNA levels of CD59 in several in vitro cellular models [2]

Nc1cccc2c1CN(C1CCC(=O)NC1=O)C2=O (stereo not drawn) [lenalidomide, 3-(4-amino-1-oxo-1,3-dihydro-isoindol-2-yl)-piperidine-2,6-dione]
increase: CD59 mRNA levels in α-cd3/cd28 stimulated T cells [1] | mRNA levels of CD59 in several in vitro cellular models [2] | CD59 mRNA levels in PBMC cells [3] | CD59 mRNA levels in unstimulated monocytes [4]
